{"source": "patent US8563500B2", "about": "“Methods and compounds for treating diseases caused by reactive oxygen species” (Deutsches Krebsforschungszentrum Stiftung des Offentlichen …, priority 2007, dated 2013)", "key": {"CD95L [1]": {"tested_on": "CD95L", "test": "Activation-induced CD95L expression, semi-quantitative RT-PCR and quantitative PCR, Jurkat cells", "type": "cell-based, human", "details": "for reduction of CD95L induction, quantitative PCR: plate-bound anti-CD3 (TCR triggering)"}, "Jurkat J16-145 cells [2]": {"tested_on": "Jurkat J16-145 cells", "test": "Activation-induced (PMA or anti-CD3) ROS generation, DCFDA oxidation by FACS", "type": "cell-based, human"}, "CD95L [3]": {"tested_on": "CD95L", "test": "Anti-CD3 induced CD95L expression in primary human T cells (PCR)", "type": "cell-based", "details": "day 6 T cells"}, "[4]": {"tested_on": "primary human T cells (day 6 T cells)", "test": "Anti-CD3 induced ROS generation (DCFDA) in primary human T cells", "type": "cell-based", "details": "preactivated primary human T cells (day 6); anti-CD3 30 min"}, "CD95 receptor [5]": {"tested_on": "CD95 receptor", "test": "Apoptosis induced by direct stimulation of the CD95 receptor, primary T cells", "type": "cell-based, human", "details": "data not shown"}, "complex I [6]": {"tested_on": "complex I", "details": "references 6, 18; cited from earlier work"}, "CD95 receptor [7]": {"tested_on": "CD95 receptor", "test": "Apoptosis induced via direct stimulation of the CD95 receptor, Jurkat cells", "type": "cell-based, human", "details": "data not shown"}, "complex I [8]": {"tested_on": "complex I", "details": "isolated mitochondria; reference 6; cited from earlier work"}, "[9]": {"tested_on": "primary human T cells (day 6 T cells)", "test": "AICD in primary human T cells, specific cell death", "type": "cell-based", "details": "plate-bound anti-CD3 24 h", "procedure": "FIG. 9. Primary human T cells depend on complex I-originated activation-induced ROS for CD95L expression and AICD. […] Cells were stained with DCFDA and MFI was measured by FACS. […] Next, RNA was isolated, reverse-transcribed, and amplified using CD95L- and actin-specific primers. C, T cells were transfected with 900 nM of scrambled- (ctr) or two different NDUFAF1-siRNA oligonucleotides (#1, #2). After 48 h, RNA was isolated, reverse-transcribed, and amplified using NDUFAF1- and actin-specific primers. D, 72 h after transfection with 900 nM of scrambled- (ctr) or NDUFAF1-siRNA oligonucleotides (#1, #2) primary human T were stimulated by plate-bound anti-CD3 antibodies for 30 min and oxidative signal was determined as in (A). […] (ii) For 1 h (F), to detect changes in CD95L expression (left panel semi quantitative PCR; right panel quantitative PCR). (iii) For 24 h (G) to assessed AICD by a drop in FCS/SSC index. Insert show T cells cotreated with or without CD95L neutralizing antibody (results were recalculated to “specific cell death”). H, Schematic diagram of TCR induced oxidative signalling.\nIsolation of human peripheral T cells. […]\n(§1) Assessment of cell death. […] Cell death was assessed by a drop in the forward-to-side-scatter (FSC/SSC) profile in comparison to living cells and recalculated to “specific cell death” as described (25)."}, "Jurkat J16-145 cells [10]": {"tested_on": "Jurkat J16-145 cells", "test": "Activation-induced T cell death (AICD), specific cell death by FSC/SSC, Jurkat cells", "type": "cell-based, human", "details": "PMA/ionomycin or plate-bound anti-CD3, 24 h", "procedure": "as §1"}, "IL-2, IL-4, or TNF-alpha": {"tested_on": "IL-2, IL-4, or TNF-alpha", "test": "Cytokine expression in activated T cells (RT-PCR)", "type": "cell-based, human"}, "Jurkat J16-145 cells [11]": {"tested_on": "Jurkat J16-145 cells", "test": "Cellular ATP determination", "type": "cell-based, human", "details": "high concentrations of inhibitors, 2 h"}, "[12]": {"details": "Jurkat J16-145, anti-CD3 or PMA/ionomycin, 1 h"}}, "note": "Where two headings read alike, the source gives them in different places.", "data": [{"compound": "CN(C)CCCn1cc(C2=C(c3c[nH]c4ccccc34)C(=O)NC2=O)c2ccccc21", "note": "[BIM, bisindolylmaleimide I]", "values": [{"measurement": "effect on activation-induced CD95L expression (RT-PCR), in words", "setting": "CD95L [1]", "value": "dose dependent inhibition of CD95L expression"}]}, {"compound": "c1ccc2c(c1)[I+]c1ccccc1-2", "note": "[DPI]", "values": [{"measurement": "effect on PMA-induced ROS generation / oxidative signal, in words", "setting": "Jurkat J16-145 cells [2]; Jurkat J16-145, PMA 30 min", "value": "only a moderate effect"}]}, {"compound": "O=C(CC(=O)C(F)(F)F)c1cccs1", "note": "[TTFA, 1,1,1-thenoyl trifluoroacetone]", "values": [{"measurement": "effect on activation-induced (TCR- and PMA-induced) ROS generation, in words", "setting": "Jurkat J16-145 cells [2]", "value": "no effect or increased the oxidative signal"}]}, {"compound": "COc1cc(C(C)=O)ccc1O", "note": "[apocynin]", "values": [{"measurement": "effect on PMA-induced ROS generation / oxidative signal, in words", "setting": "Jurkat J16-145 cells [2]; Jurkat J16-145, PMA 30 min", "value": "only a moderate effect"}]}, {"compound": "CN(C)C(=N)N=C(N)N", "note": "[metformin]", "values": [{"measurement": "inhibition of induction of CD95L expression", "setting": "CD95L [3]; plate-bound anti-CD3 1 h", "value": "up to 70%"}, {"measurement": "effect on activation-induced (anti-CD3) oxidative signal, in words", "setting": "[4]", "value": "inhibits the anti-CD3 induced oxidative signal"}, {"measurement": "apoptosis induced by direct stimulation of the CD95 receptor", "setting": "CD95 receptor [5]", "value": "not affected"}, {"measurement": "inhibition of complex I", "setting": "complex I [6]", "value": "mildly inhibits"}, {"measurement": "reduction of CD95L expression, quantitative PCR", "setting": "CD95L [1]; Jurkat J16-145, PMA/ionomycin, 1 h", "value": 50, "unit": "%"}, {"measurement": "effect on activation-induced CD95L expression (RT-PCR), in words", "setting": "CD95L [1]; [12]", "value": "inhibition of CD95L expression"}, {"measurement": "reduction of CD95L induction, quantitative PCR", "setting": "CD95L [1]; Jurkat J16-145, 1 h", "value": "up to 80%"}, {"measurement": "apoptosis induced via direct stimulation of the CD95 receptor", "setting": "CD95 receptor [7]", "value": "not affected"}, {"measurement": "inhibition of complex I-induced ROS production", "setting": "complex I [8]", "value": "efficiently inhibit"}, {"measurement": "effect on PMA-induced ROS generation / oxidative signal, in words", "setting": "Jurkat J16-145 cells [2]", "value": "diminished oxidative signal"}, {"measurement": "effect on AICD (cell death), in words", "setting": "[9]", "value": "nearly completely inhibited"}, {"measurement": "effect on AICD, in words", "setting": "Jurkat J16-145 cells [10]", "value": "drastically reduced AICD"}, {"measurement": "expression of cytokines such as IL-2, IL-4, or TNF-alpha", "setting": "IL-2, IL-4, or TNF-alpha", "value": "can be reduced"}]}, {"compound": "CC[C@H]1/C=C/C=C/C[C@@H](C)[C@H](O)[C@@](C)(O)C(=O)[C@@H](C)[C@H](O)[C@@H](C)C(=O)[C@@H](C)[C@H](O)[C@@H](C)/C=C/C(=O)O[C@@H]2[C@H](C)[C@H](CC1)O[C@]1(CC[C@H](C)[C@H](C[C@@H](C)O)O1)[C@H]2C", "note": "[oligomycin]", "values": [{"measurement": "reduction of CD95L induction, quantitative PCR", "setting": "CD95L [1]; Jurkat J16-145, 1 h", "value": "no effect"}, {"measurement": "ATP depletion compared to rotenone and piericidin A", "setting": "Jurkat J16-145 cells [11]", "value": "more efficient ATP depletion"}, {"measurement": "effect on activation-induced (TCR- and PMA-induced) ROS generation, in words", "setting": "Jurkat J16-145 cells [2]; Jurkat J16-145, anti-CD3 or PMA, 30 min", "value": "no effect or increased the oxidative signal"}]}, {"compound": "C/C=C(\\C)[C@H](O)[C@H](C)/C=C(C)/C=C/C/C(C)=C/Cc1nc(OC)c(OC)c(O)c1C", "note": "[piericidin A]", "values": [{"measurement": "effect on activation-induced CD95L expression (RT-PCR), in words", "setting": "CD95L [1]; [12]", "value": "abolished CD95L transcription almost completely"}, {"measurement": "effect on activation-induced (TCR- and PMA-induced) ROS generation, in words", "setting": "Jurkat J16-145 cells [2]", "value": "able to inhibit"}]}, {"compound": "C=C(C)[C@H]1Cc2c(ccc3c2O[C@@H]2COc4cc(OC)c(OC)cc4[C@@H]2C3=O)O1", "note": "[rotenone]", "values": [{"measurement": "effect on CD95L expression, in words", "setting": "CD95L [3]; anti-CD3 1 h", "value": "exclusively inhibited"}, {"measurement": "effect on activation-induced (anti-CD3) oxidative signal, in words", "setting": "[4]", "value": "exclusively inhibited"}, {"measurement": "effect on activation-induced CD95L expression (RT-PCR), in words", "setting": "CD95L [1]; [12]", "value": "abolished CD95L transcription almost completely"}, {"measurement": "reduction of CD95L induction, quantitative PCR", "setting": "CD95L [1]; Jurkat J16-145, 1 h", "value": "more than 80%"}, {"measurement": "effect on activation-induced (TCR- and PMA-induced) ROS generation, in words", "setting": "Jurkat J16-145 cells [2]", "value": "able to inhibit"}]}]}
